The test system of one assay is caspase-1. Put plainly: Western blot of active caspase-1 (p10), LPS+ATP-activated J774A.1 macrophages. The class given is cell-based, mouse. How it is done: (A) J774A.1 macrophages (1×10^6/ml) and (B) peritoneal macrophages (1×10^5/ml) were incubated with compound 1h for 30 min followed by LPS (1 μg/ml) stimulating for 5.5 h, then the cells were stimulated with ATP (5 mM) for an additional 30 min. The IL-1β in the culture medium was measured by ELISA and the expression of active caspase-1 (p10) was measured by Western blot. In (C) and (D), J774A.1 macrophages (1×10^6/ml) were incubated with LPS (1 μg/ml) for 5.5 h, then cells were incubated with compound 1h for 30 min followed by stimulating with ATP (5 mM) for an additional 30 min. The IL-1β and IL-6 in the culture medium were measured by ELISA and the expression of active caspase-1 (p10) was measured by Western blot. In (E), J774A.1 macrophages (1×10^6/ml) were incubated with compound 1h for 30 min followed by LPS (1 μg/ml) stimulating for 6 h. The expression of NLRP3 and proIL-1β were measured by Western blot.
Whole cell lysates were separated by SDS-PAGE and electrotransferred to a PVDF membrane. The membranes were incubated in blocking solution—5% nonfat milk in phosphate buffered saline with 0.1% Tween 20—at room temperature for 1 h. Each membrane was incubated with a specific primary antibody at room temperature for 2 h. After washing three times in PBS with 0.1% Tween 20, the membrane was incubated with an HRP-conjugated secondary antibody directed against the primary antibody. […]

The next assay relates to IL-6. As to the kind of experiment: IL-6 ELISA, LPS-activated JAWSII dendritic cells. Format: cell-based, murine. The note with it: LPS 1 μg/ml 24 h. The protocol: (A) J774A.1 macrophages (4×10^5/ml), (B) peritoneal macrophages (4×10^5/ml), and (C) JAWSII dendritic cells (4×10^5/ml) were incubated with compound 1h or DMSO for 30 min followed by stimulating with LPS (1 μg/ml) for 24 h, then IL-6 and TNF-α concentration in culture medium were assayed by ELISA. The data are expressed as the mean±SD for three separate experiments. *, **, and *** indicate a significant difference at the level of p<0.05, p<0.01, p<0.001 respectively compared to LPS group.
The effects of tested samples on IL-1β, TNF-α and IL-6 production were measured by ELISA according to the manufacturer's instruction. In brief, 50 μl of biotinylated antibody reagent and 50 μl of supernatant were added to an anti-mouse IL-1β, TNF-α and IL-6 precoated stripwell plate, and incubated at room temperature for 2 h. After washing the plate three times with washing buffer, 100 μl of diluted streptavidin-HRP concentrate was added to each well and incubated at room temperature for 30 min. The washing process was repeated; then 100 μl of a premixed tetramethylbenzidine substrate solution was added to each well and developed at room temperature in the dark for 30 min. Following the addition of 100 μl of stop solution to each well to stop the reaction, the absorbance of the plate was measured by a microplate reader at 450 nm wavelength.
Background: An ELISA detects its analyte on a solid surface through an enzyme-linked reagent.

The subject of another assay is IKK-α and IκB-α. Put plainly: Western blot of IKK-α and IκB-α, LPS-activated RAW 264.7 macrophages. Format: cell-based, murine. The note with it: LPS-activated RAW 264.7, LPS 20 min. How it is done: (A) RAW 264.7 macrophages (5×10^5/ml) or (B) J774A.1 macrophages (5×10^5/ml) were incubated with compound 1h or DMSO for 30 min followed by LPS (1 μg/ml) stimulating for 20 min, then the phosphorylation levels of IKK-α and IκB-α and total IκB-α protein level were analyzed by Western blot. (C) RAW 264.7 macrophages (5×10^5/ml) or (D) J774A.1 macrophages (5×10^5/ml) were incubated with compound 1h (10-40 μM) or DMSO for 30 min followed by LPS (1 μg/ml) stimulating for 20 min, then the nuclear translocation of NF-κB were analyzed by ELISA. (E) RAW-Blue™ cells (5×10^5/ml) were incubated with compound 1h (2.5-40 μM) or DMSO for 30 min followed by LPS (1 μg/ml) stimulating for 24 h, then the SEAP activity was measured by QUANTI-Blue™. […] In (C), (D), and (E), the data are expressed as the mean±SD for three separate experiments. *, **, and *** indicate a significant difference at the level of p<0.05, p<0.01, and p<0.001 respectively compared to LPS group.
Whole cell lysates were separated by SDS-PAGE and electrotransferred to a PVDF membrane. The membranes were incubated in blocking solution—5% nonfat milk in phosphate buffered saline with 0.1% Tween 20—at room temperature for 1 h. Each membrane was incubated with a specific primary antibody at room temperature for 2 h. After washing three times in PBS with 0.1% Tween 20, the membrane was incubated with an HRP-conjugated secondary antibody directed against the primary antibody. The membrane was developed by an enhanced chemiluminescence Western blot detection system.
A general note: Immunoblotting shows a protein as a band on a membrane.

A further assay deals with RAW 264.7 cells. Put plainly: AlamarBlue assay for cell viability. The settings on record: Mus musculus, RAW264.7, cytotoxicity against RAW 264.7 cells, 24 h treatment. Format: cell-based, murine. How it is done:
RAW 264.7 cells were seeded at a density of 5000 cells in 100 μl RPMI 1640 medium with 10% heat-inactivated FBS per well in 96-well flat-bottom plates and incubated for 24 h at 37° C. in a 5% CO2 incubator. Cells were incubated with tested samples for 24 h and the AlamarBlue® assay was used to determine the cytotoxicity of the test samples. The procedure was conducted following the protocol described in the manufacture's instruction (AbD Serotec Ltd).
The aim of this study is to identify non-toxic polyenylpyrrole derivatives which can be used as anti-inflammatory agents. Compounds 1a-n were evaluated for their cytotoxicities against the murine macrophages cell line RAW 264.7 after 24 h treatment.
For orientation: The colour change of resazurin is a common sign of viable cells or microbes.

By IC50 is commonly meant the point on the concentration scale where inhibition reaches its midpoint. Low values mean greater potency, high ones weaker potency. Regarding `O=c1cc(O)cc(/C=C/C=C/C=C/C=C/c2[nH]ccc2Cl)o1` [Compound 1h], in the assay with caspase-1 (J774A.1, compound before LPS and ATP treatment), the caspase-1 activation entry was “significantly inhibited”. The caspase-1 activation entry with caspase-1 (LPS-primed J774A.1, compound 30 min before ATP stimulation) was “not caspase-1 activation”. For the same molecule, the “secretion of IL-6” value in the assay on IL-6 is “also reduced”. For the same molecule, in the assay with IKK-α and IκB-α, the IκB-α degradation entry was “partially rescued”, the “phosphorylation level of IKK-α” value is listed as “inhibited” and the “phosphorylation level of IκB-α” value is “inhibited”. Besides, in the assay on RAW 264.7 cells, the IC50 was greater than 100 µM.

For the origin of these results see US9475789B2, “Use of polyenylpyrrole derivatives for treating inflammation” (WELLHEAD BIOLOGICAL TECHNOLOGY CORP., priority 2014, dated 2016).
